Laboratory results from article PMC9694197, “Undescribed Metabolites from an Actinobacteria Acrocarpospora punica and Their Anti-Inflammatory Activity” (Molecules, 2022).
Entries after “also recorded” stand apart in the source; their conditions may differ. Like-named read-outs stand apart in the source and are kept apart here.

Columns and labels:
Type in all cases: cell-based, mouse
[1] = tested on: LPS-induced NO production in RAW 264.7 murine macrophages; test: LPS-induced iNOS-dependent NO production (nitrite, Griess reagent assay); details: for NO inhibitory activity compared to quercetin: ratio to the positive control quercetin, RAW 264.7, LPS; for IC50: read-out: IC50, NO generation; for NO inhibitory activity (in words): RAW 264.7, LPS-stimulated
Procedure: (§1) The six isolates, in sufficient amounts, were evaluated by examining their inhibitory effects on LPS-induced inducible nitric oxide synthase (iNOS)-dependent NO production in the murine macrophage cell line RAW 264.7 (Table 5). […] (e) Compounds 3 and 6 belong to liner azaphilone skeleton and naphthenic derivatives, respectively; compound 3 has better anti-inflammatory activity than 6. […] (g) The cytotoxic effects were measured using an MTT assay.
(§2) Mouse macrophage cell line (RAW 264.7) was obtained from the Bioresource Collection and Research Center (BCRC 60001) and cultured at 37 °C in Dulbecco’s Modified Eagle’s Medium (DMEM) supplemented with 10% fetal bovine serum (Gibco), 4.5 g/L glucose, 4 mM glutamine, penicillin (100 units/mL), and streptomycin (100 μg/mL) in a humidified atmosphere in a 5% CO2 incubator. The cells were treated with 10, 25, 50 μM natural products in the presence of 1 μg/mL LPS (lipopolysaccharide, Sigma-Aldrich) for 20 h. The concentration of NO in culture supernatants was determined as nitrite, a major stable product of NO, by a Griess reagent assay, and the cell viabilities were determined using the MTT assay as described previously.

[2] = Cell viability, MTT assay; details: mouse, RAW 264.7 macrophage cells; RAW 264.7, MTT assay
Procedure: as §1, §2

[3] = tested on: RAW 264.7 cells; test: Cell viability, MTT assay; details: RAW 264.7, MTT assay, with 1 μg/mL LPS, 20 h; mean ± S.E.M.
Procedure: as §1, §2

[4] = tested on: iNOS gene (mRNA expression); test: RT-PCR of iNOS mRNA expression after LPS treatment
Procedure: as §1
The ImProm-II Reverse Transcription System (Promega) was used to take 1 μg of the extracted total RNA, to which was added 1 μL of Oligo(dT)15 Primer, and other supplements with DEPS water. At this time, the total volume was 5 μL. The reaction was immediately placed on ice for at least 5 min, and then 5 × buffer 4 μL, MgCl2 (25 mM) 1.2 μL, dNTP Mix (10 mM) 1 μL, RNasin Ribonuclease Inhibitor 0.5 μL, ImProm-II reverse transcriptase 1 μL and DEPC H2O 6.8 μL was added; the cDNA product was obtained after the reactions of 25 °C, 5 min; 42 °C, 1 h; and 70 °C, 15 min. At the same time, a negative control group was made without reverse transcriptase to confirm whether there was DNA contamination. The obtained cDNA product was then amplified by a PCR reaction to amplify the predicted fragment.
Using the ABI PRISM 7700 Sequence Detection System, the cDNA product was assayed for iNOS, TNF-α, IL-6 and β-actin (internal standard) in a total reaction volume of 20 μL, including 2 × IQ2 SYBR Green Fast qPCR Master Mix (2X) 10 μL, 10 μM of 5′ and 3′ primers 1 μL each. The cDNA template 1 μL reaction conditions were 95 °C, 2 min, 1 cycle; 95 °C, 5 s; and 60 °C, 30 s, 40 cycles. The primers of the PCR reaction were: sense strand iNOS, 5′-GGAGTGACGGCAAACATGACT-3′; anti-sense strand iNOS, 5′-TCGATGCACAACTGGGTGAAC-3′; sense strand IL-6, 5′-CAGAGTCCTTCAGAGAGATACAG-3′; anti-sense strand IL-6, 5′-GATGAATTGGATGGTCTTGGTCC-3′; sense strand TNF-α, 5′-CAGACCCTCACACTCAGATC-3′; anti-sense strand TNF-α, 5′-CTTTGAGATCCATGCCGTTG-3′; sense strand β-actin, 5′-GGCTGTATTCCCCTCCATCG-3′; and anti-sense strand β-actin, 5′-CCAGTTGGTAACAATGCCATGT-3′.

[5] = Mus musculus, RAW264.7, 20 h, RAW 264.7 murine macrophages, 1 μg/mL LPS, 20 h, mean ± S.E.M. of three independent experiments
[6] = RAW 264.7 murine macrophages, 1 μg/mL LPS, 20 h, mean ± S.E.M. of three independent experiments

SMILES | NO inhibitory activity compared to quercetin [1] | viability at 20 h [2] [%] | Cell Viability (% Control) [3] [% Control] | Effect on LPS-increased iNOS mRNA expression [4] | IC50 [1, 5] [µM] | IC50 [1, 6] [µM] | IC50 ([1]; Mus musculus, RAW264.7, 20 h) [µM] | NO inhibitory activity (in words) [1] | IC50 ([1]; RAW 264.7 murine macrophages, 1 μg/mL LPS, 20 h, mean ± S.E.M. of three independent experiments, listed as 3) [µM] | IC50 ([1]; RAW 264.7 murine macrophages, 1 μg/mL LPS, 20 h, mean ± S.E.M. of three independent experiments, listed as 2) [µM]
CC=CC1=CC2=CC3=C(C(=O)CCCCC)C(=O)OC3(C)C(=O)C2=CN1CC (centres unmarked) [Acrocarpunicain A (1), acrocarpunicain A] | about 4 fold | > 90 | 100 ± 15.5 | inhibited this increase in a concentration-dependent manner; also recorded: significantly inhibited | – | – | – | – | – | –
COc1cc2ccc3c(c2cc1C(C)C)CCCC3(C)C [Acrocarpunicain F (6), 6-isopropyl-7-methoxy-1,1-dimethyl-1,2,3,4-tetrahydrophenanthrene] | ~1.2 fold | > 90 | 91.3 ± 7.1 | inhibited this increase in a concentration-dependent manner; also recorded: significantly inhibited | ≤ 27.2 | 27.2 ± 1.87 | – | – | – | –
CCC(CCC(C)C1CCC2C3CC=C4CC(OC(=O)C=Cc5cc(O)c(OC)c(O)c5)CCC4(C)C3CCC12C)C(C)C (stereo not drawn) [Acrocarpunicain E (5), β-sitosteryl trans-3-hydroxyisoferulate] | – | – | – | – | – | – | 67.4 ± 4.09 | no NO inhibitory activity | – | –
O=c1c(O)c(-c2ccc(O)c(O)c2)oc2cc(O)cc(O)c12 [Quercetin, reference compound] | – | – | 95.9 ± 1.3 | – | 36 ± 2.34 | – | – | – | – | –
CC=CC1=C(C)C(=O)C2(C)OC(=O)C(C(=O)CCCCC)C2C1 (centres unmarked) [Acrocarpunicain D (4), acrocarpunicain D] | – | – | 62.2 ± 3.2 | – | 41.7 ± 3.02 | – | – | weak NO inhibitory activity | – | –
C/C=C/c1cc2cc3c(c(=O)c-2co1)C(=O)OC3C (centres unmarked) [Acrocarpunicain C (3), (E)-1-methyl-7-(prop-1-en-1-yl)-3H-furo [3,4-g]isochromene-3,4(1H)-dione] | ~7 fold | > 90 | 92.7 ± 4.1 | inhibited this increase in a concentration-dependent manner; also recorded: significantly inhibited | – | 5.15 ± 0.18 | – | – | ≤ 27.2 | –
CC=CC1=CC2=CC3=C(C(=O)CCCCCCC)C(=O)OC3(C)C(=O)C2=CN1CC (centres unmarked) [Acrocarpunicain B (2), acrocarpunicain B] | ~3 fold | > 90 | 95.5 ± 4.2 | inhibited this increase in a concentration-dependent manner; also recorded: significantly inhibited | – | 10.1 ± 0.47 | – | – | – | ≤ 27.2
